Measured values taken from patent US20250243170A1, “REMIBRUTINIB DRUG SUBSTANCE AND DRUG PRODUCT SUBSTANTIALLY FREE OF NITROSAMINE IMPURITY” (NOVARTIS AG, priority 2024, published 2025).
Where “and” joins values, the source holds several entries; their conditions need not be identical. Equal values may be shown once. Entries after “also recorded” stand apart in the source; their conditions may differ.

Legend:
[1] = test system: Salmonella typhimurium strain TA98; test: Enhanced Ames Test (EAT), strain TA98; settings: TA98, presence of hamster S-9
Experimental: (§1) N-(3-(6-amino-5-(2(methyl)(nitroso)amino)ethoxy)pyrimidin-4-yl)-5-fluoro-2-methylphenyl)-4-cyclopropyl-2-fluorobenzamide was evaluated in the EAT performed under GLP following the EMA and FDA guidance (2023) for the EAT conditions for N-nitrosamines.
(§2) In this study N-(3-(6-amino-5-(2(methyl)(nitroso)amino)ethoxy)pyrimidin-4-yl)-5-fluoro-2-methylphenyl)-4-cyclopropyl-2-fluorobenzamide was evaluated for mutations in Salmonella typhimurium strains TA98, TA100, TA1535 and TA1537 and Escherichia coli strain WP2 uvrA pKM101, both in the absence and presence of 30% rat and hamster metabolic activation (β-naphthoflavone/phenobarbital-induced rat and hamster liver post-mitochondrial S-9 fraction). The test used pre-incubation method (30 minutes). N-(3-(6-amino-5-(2(methyl)(nitroso)amino)ethoxy)pyrimidin-4-yl)-5-fluoro-2-methylphenyl)-4-cyclopropyl-2-fluorobenzamide was formulated in dimethyl sulfoxide (DMSO) at concentrations of 5, 16, 50, 160, 500, 1600 and 5000 μg/plate.
(§3) Following the recommendations of the EAT, in addition to the concurrent strain-specific positive controls, two nitrosamine positive controls, i.e. N-nitrosodiethylamine (NDEA) and N-methyl-N-nitroso-(2-phenylethyl)amine (MNPA) were used that are known to be mutagenic in the presence of S-9.

[2] = Stability of intermediate F8: nitrosamine content upon air exposure; format: physicochemical
Experimental: (§4) • Limit-test by LC-MS (SIM mode), AJS-ES, positive mode, SIM Ion: 483.2 [M+H]+ • Column: YMC-Triart C18, 100×3.0 mm, particle size 1.9 μm, 12 nm • Mobile phase A: Dissolve 0.315 g of Ammonium formate in 1000 ml of water, add 0.5 ml of formic acid • Mobile phase B: Methanol • Sample solvent: Methanol+0.2% (v/v) Formic acid • Sample solution: approx. 100 mg of the sample in 20 mL • Flow: 0.6 mL/min • Injection volume: 3 μL • Autosampler cooled, 8° C. • Column temperature. 80° C. • Gradient: […]

[3] = Stability of F8: nitrosamine content after 12 months storage; format: physicochemical; settings: for growth of nitrosamine-content upon storage / change of nitrosamine-content upon storage: 12M; for Nitrosamine content in F8: double polyethylene-bags
Experimental: as §4
(§5) The impact of protective gas (nitrogen) for storage vs storage in non-protected atmosphere, of light exposed vs dark conditions and the effect of temperature was investigated. In addition, the stability study samples pulled after 12 M of storage at different temperature and humidity were included into the assessment.

[4] = Additional stress testing of F8 (inert gas, open vial, light); format: physicochemical; settings: for formation of nitrosamine upon storage: several days, room temperature
Text: as §5

[5] = test system: Salmonella typhimurium strain TA100; test: Enhanced Ames Test (EAT), strain TA100
Experimental: as §1, §2, §3

[6] = Accelerated predictive stability (APS) of LOU064 drug substance, open dish; format: physicochemical; settings: for Nitrosamine impurity: open dish
Experimental: (§6) • Limit-test by LC-MS (SIM mode), AJS-ES, positive mode, SIM Ion: 483.2 [M+H]+ • Column: YMC-Triart C18, 100×3.0 mm, particle size 1.9 μm, 12 nm • Mobile phase A: Dissolve 0.315 g of Ammonium formate in 1000 ml of water, add 0.5 mL of formic acid • Mobile phase B: Methanol • Sample solvent: Methanol+0.2% (v/v) Formic acid • Sample solution: approx. 100 mg of the sample in 20 mL • Flow: 0.6 mL/min • Injection volume: 3 μL • Autosampler cooled, 8° C. • Column temperature. 80° C. • Gradient: […]
A statistical based approach, Accelerated Predictive Stability (APS), using the humidity modified Arrhenius equation [Waterman and al., International Journal of Pharmaceutics 293 (1-2), 101-125 (2005)] is applied to understand stability behavior and predict the retest period. […] Short studies are conducted on open dish samples of representative batch(es) of drug substance at accelerated conditions using a wide range of temperatures and humidity with the goal of reaching the specification limit for the identified retest period limiting attributes at each condition as detailed below. […] The humidity corrected Arrhenius equation reflects both the influence of the temperature, and the moisture on the kinetics of the degradation product formation. The resulting open-dish data are fitted to a humidity-corrected Arrhenius equation^1 using ASAPprime® (current version 6.0): […]
3 batches of LOU064 drug substance were placed in open dish under the protocol summarized below:
(§7) The pulled samples were analyzed by HPLC-MS as per method described in example 1 and reported below in tables 8 and 9.

[7] = APS of LOU064 drug substance, closed vessel with or without nitrogen purge; format: physicochemical
Experimental: as §6
Samples of batches of LOU064 drug substance were prepared in duplicated in closed container, with one sample being purged with nitrogen and the other not.
as §7

[8] = test system: Salmonella typhimurium strains TA98, TA100, TA1535 and TA1537 and Escherichia coli strain WP2 uvrA pKM101; test: Enhanced Ames Test (EAT), all tester strains; format: cell-based
Experimental: The test used pre-incubation method (30 minutes).

[9] = test system: Salmonella typhimurium strain TA1535; test: Enhanced Ames Test (EAT), strain TA1535; settings: TA1535, presence of hamster S-9
Experimental: as §1, §2, §3

[10] = Formulation analyses of EAT dosing formulations in DMSO; format: physicochemical; settings: 6 hrs at room temperature

CN(CCc1ccccc1)N=O [MNPA, N-methyl-N-nitroso-(2-phenylethyl)amine]
increase in revertant numbers [1]: up to 1.9 fold

CNCCOc1c(N)ncnc1-c1cc(F)cc(NC(=O)c2ccc(C3CC3)cc2F)c1C [F8]
Nitrosamine in F8 ([2]; Analyzed after 52 h air exp.): 533 ppb
Nitrosamine in F8 ([2]; Analyzed directly after weighting the sample): 86 ppb
growth of nitrosamine-content upon storage ([3]; 30° C./65% RH): > 100%
growth of nitrosamine-content upon storage ([3]; 40° C./75% RH): > 100%
change of nitrosamine-content upon storage ([3]; cold (5° C.)): only a minor rise
change of nitrosamine-content upon storage ([3]; frozen (−20° C.)): no increase
Nitrosamine content in F8 ([3]; 12 months, 5° C.): 323 ppb
Nitrosamine content in F8 ([3]; 12 months, 30° C., 65% RH): 595 ppb
Nitrosamine content in F8 ([3]; 12 months, 40° C., 75% RH): 647 ppb
Nitrosamine content in F8 ([3]; 12 months, −20° C.): 276 ppb
Nitrosamine content in F8 ([3]; T0): 300 ppb
effect of exposure to light on nitrosamine formation ([4]; light exposed vs dark): slightly accelerate conversion of F8 into nitrosamine
formation of nitrosamine upon storage ([4]; open vial): rapid increase
formation of nitrosamine upon storage ([4]; stored under inert gas): only a minor, yet constant formation of nitrosamine

CCN(CC)N=O [NDEA, N-nitrosodiethylamine, reference compound]
increase in revertant numbers ([5]; TA100, presence of 30% rat S-9): > 2 fold

C=CC(=O)N(C)CCOc1c(N)ncnc1-c1cc(F)cc(NC(=O)c2ccc(C3CC3)cc2F)c1C [LOU064 drug substance, N-(3-(6-Amino-5-(2-(N-methylacrylamido)ethoxy)pyrimidin-4-yl)-5-fluoro-2-methylphenyl)-4-cyclopropyl-2-fluorobenzamide]
stability behavior of the nitrosamine impurity ([6]; all APS open dish conditions): stable
Nitrosamine impurity ([6]; 50° C., 75% RH, 14 days): 74.9 ppb
Nitrosamine impurity ([6]; 50° C., 75% RH, 21 days): 75.8 ppb
Nitrosamine impurity ([6]; 50° C., 75% RH, 28 days): 106.5 ppb and 106.8 ppb
Nitrosamine impurity ([6]; 60° C., 11% RH, 21 days): 87.1 ppb
Nitrosamine impurity ([6]; 60° C., 11% RH, 28 days): 113.5 ppb
Nitrosamine impurity ([6]; 60° C., 50% RH, 14 days): 77.0 ppb
Nitrosamine impurity ([6]; 60° C., 50% RH, 28 days): 106.6 ppb
Nitrosamine impurity ([6]; 60° C., 75% RH, 14 days): 69.8 ppb
Nitrosamine impurity ([6]; 60° C., 75% RH, 21 days): 82.7 ppb
Nitrosamine impurity ([6]; 60° C., 75% RH, 28 days): 119.1 ppb
Nitrosamine impurity ([6]; 70° C., 31% RH, 14 days): 77.9 ppb
Nitrosamine impurity ([6]; 70° C., 31% RH, 28 days): 113.3 ppb
Nitrosamine impurity ([6]; 70° C., 50% RH, 21 days): 83.2 ppb
Nitrosamine impurity ([6]; 70° C., 50% RH, 28 days): 108.3 ppb
Nitrosamine impurity ([6]; 70° C., 75% RH, 14 days): 82.6 ppb
Nitrosamine impurity ([6]; 70° C., 75% RH, 21 days): 83.2 ppb
Nitrosamine impurity ([6]; 80° C., 51% RH, 7 days): 105.3 ppb
Nitrosamine impurity ([6]; 80° C., 51% RH, 21 days): 75.5 ppb
Nitrosamine impurity ([6]; initial, 0 days): 99.1 ppb
nitrosamine, stored closed under nitrogen versus closed without nitrogen ([7]; 60-80° C., up to 27 days): no difference observed beyond analytical variability
Nitrosamine without Nitrogen purge ([7]; 60° C., 21 days): 72.5 ppb
nitrosamine with Nitrogen purge ([7]; 60° C., 21 days): 86.5 ppb
Nitrosamine without Nitrogen purge ([7]; 60° C., 27 days): 109.8 ppb
nitrosamine with Nitrogen purge ([7]; 60° C., 27 days): 110.4 ppb
Nitrosamine without Nitrogen purge ([7]; 70° C., 21 days): 67.0 ppb
nitrosamine with Nitrogen purge ([7]; 70° C., 21 days): 76.6 ppb
Nitrosamine without Nitrogen purge ([7]; 70° C., 27 days): 116.0 ppb
nitrosamine with Nitrogen purge ([7]; 70° C., 27 days): 109.4 ppb
Nitrosamine without Nitrogen purge ([7]; 80° C., 21 days): 59.6 ppb
nitrosamine with Nitrogen purge ([7]; 80° C., 21 days): 54.8 ppb
Nitrosamine without Nitrogen purge ([7]; 80° C., 27 days): 114.7 ppb
nitrosamine with Nitrogen purge ([7]; 80° C., 27 days): 119.2 ppb
Nitrosamine without Nitrogen purge ([7]; initial, 0 days): 99.1 ppb
nitrosamine with Nitrogen purge ([7]; initial, 0 days): 99.1 ppb

Cc1c(NC(=O)c2ccc(C3CC3)cc2F)cc(F)cc1-c1ncnc(N)c1OCCN(C)N=O [N-(3-(6-amino-5-(2(methyl)(nitroso)amino)ethoxy)pyrimidin-4-yl)-5-fluoro-2-methylphenyl)-4-cyclopropyl-2-fluorobenzamide]
mutagenicity in the presence of rat S-9 ([8]; 30% rat S-9): not mutagenic
Enhanced Ames Test (EAT) result ([8]; GLP, EMA and FDA guidance (2023) EAT conditions for N-nitrosamines, pre-incubation 30 minutes, 5-5000 μg/plate): positive; also recorded: mutagenic under sensitive metabolic conditions
mutagenicity without metabolic activation ([8]; absence of S-9): not mutagenic
Precipitation observed at ([8]; all tester strains, absence and presence of S-9, formulated in DMSO): 1600 μg/plate and/or 5000 μg/plate
increase in revertant numbers ([5]; TA100, presence of hamster S-9): ≥ 2 fold
increase in revertant numbers [9]: ≥ 3 fold
stability and homogenicity in the formulations [10]: demonstrated stability and homogenicity
